Patent US8669072B2, “Oxadiazoline ligands for modulating the expression of exogenous genes via an ecdysone receptor complex” (Intrexon Corporation, priority 2003, dated 2014)

What was measured:
[1] = target: T1, Bombyx mori EcR (VBE) (Bombyx mori, UniProt P49881); test: Z3 assay: β-galactosidase reporter gene induction in HEK-293 clone Z3 (CVBE / 6XEcRE LacZ); type: cell-based; details: 33 μM ligand, 48 h, RLU relative to DMSO; for fold induction at 33 µM: HEK293, read-out: Fold Induction Average, Z3 assay
T1 construct: expressed in transfected cells; host or cells: Human HEK-293 cells, retrovirally infected, clone Z3
T1 sequence (P49881 86-606 limits assumed): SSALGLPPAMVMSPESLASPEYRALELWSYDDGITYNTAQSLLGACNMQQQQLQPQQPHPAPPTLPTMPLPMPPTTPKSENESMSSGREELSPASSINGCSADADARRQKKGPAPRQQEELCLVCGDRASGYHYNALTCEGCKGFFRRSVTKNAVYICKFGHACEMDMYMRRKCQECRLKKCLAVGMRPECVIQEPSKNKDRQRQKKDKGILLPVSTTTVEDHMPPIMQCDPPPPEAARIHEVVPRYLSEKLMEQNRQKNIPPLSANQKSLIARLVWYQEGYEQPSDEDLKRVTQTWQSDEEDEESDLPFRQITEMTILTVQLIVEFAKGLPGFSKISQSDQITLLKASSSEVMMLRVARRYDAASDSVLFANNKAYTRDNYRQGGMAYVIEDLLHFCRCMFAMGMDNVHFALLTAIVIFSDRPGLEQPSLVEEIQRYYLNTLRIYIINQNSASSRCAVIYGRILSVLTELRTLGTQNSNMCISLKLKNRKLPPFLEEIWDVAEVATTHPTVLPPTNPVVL
T1 sequence (P19793 1-462 partner): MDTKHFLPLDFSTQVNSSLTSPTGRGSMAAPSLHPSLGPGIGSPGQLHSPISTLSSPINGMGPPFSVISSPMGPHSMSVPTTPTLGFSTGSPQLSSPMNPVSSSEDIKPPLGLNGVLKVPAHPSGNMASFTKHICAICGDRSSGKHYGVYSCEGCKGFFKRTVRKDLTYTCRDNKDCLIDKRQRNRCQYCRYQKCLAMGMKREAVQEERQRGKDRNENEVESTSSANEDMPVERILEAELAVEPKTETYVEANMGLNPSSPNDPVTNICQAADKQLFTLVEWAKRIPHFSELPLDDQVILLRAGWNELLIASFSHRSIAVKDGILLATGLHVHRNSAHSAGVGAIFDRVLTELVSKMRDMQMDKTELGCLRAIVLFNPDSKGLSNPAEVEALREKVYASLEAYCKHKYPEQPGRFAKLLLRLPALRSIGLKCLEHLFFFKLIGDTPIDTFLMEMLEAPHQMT
Experimental: A synthetic ATG start codon was placed under the control of cytomegalovirus (CVBE) immediate early promoter and flanked by long terminal repeats (LTR). The reporter construct contained six copies of the ecdysone response element (EcRE) binding site placed upstream of LacZ and flanked on both sides with LTR sequences (6×EcRE).
Dilution cloning was used to isolate individual clones. Clones were selected using 450 ug/mL G418 and 100 ng/mL puromycin. Individual clones were evaluated based on their response in the presence and absence of test ligands.
Z3 cells were seeded into 96-well tissue culture plates at a concentration of 2.5×10^3 cells per well and incubated at 37° C. in 5% CO2 for twenty-four hours. Stock solutions of ligands were prepared in DMSO. […] The final concentration of DMSO was maintained at 0.03% in both controls and treatments.
Reporter gene expression was evaluated 48 hours after treatment of cells, β-galactosidase activity was measured using Gal Screen™ bioluminescent reporter gene assay system from Tropix (GSY1000). Fold induction activities were calculated by dividing relative light units (“RLU”) in ligand treated cells with RLU in DMSO treated cells. Luminescence was detected at room temperature using a Dynex MLX microtiter plate luminometer.
(§1) Each assay was conducted in two separate wells, and the two values were averaged. Fold inductions were calculated by dividing relative light units (“RLU”) in ligand treated cells with RLU in DMSO treated cells. EC50s were calculated from dose response data using a three-parameter logistic model.

[2] = target: T2, GAL4 DBD-CfEcR(DEF)/VP16AD-MmRXRE (Choristoneura fumiferana, UniProt O77240); test: 13B3 assay: luciferase reporter gene induction in stable CHO clone 13B3; type: cell-based; details: 33/33.3 μM ligand, 48 h, RLU relative to DMSO
T2 construct: The wild-type D, E, and F domains from spruce budworm Choristoneura fumiferana EcR (“CfEcR-DEF”)
Experimental: CHO cells were transiently transfected with transcription cassettes for GAL4 DBD-CfEcR(DEF) and for VP16AD-MmRXRF controlled by SV40e promoters. Stably transfected cells were selected using Hygromycin. Individually isolated CHO cell clones were transiently transfected with a GAL4 RE-luciferase reporter (pFR-Luc, Stratagene, La Jolla, Calif.). The 13B3 clone was selected using Zeocin.
(§2) Cells were trypsinized and diluted to a concentration of 2.5×10^4 cells mL. 100 μL of cell suspension was placed in each well of a 96 well plate and incubated at 37° C. under 5% CO2 for 24 h. Ligand stock solutions were prepared in DMSO and diluted 300 fold for all treatments.
(§3) Luciferase reporter gene expression was measured 48 h after cell treatment using Bright-Glo™ Luciferase Assay System from Promega (E2650). Luminescence was detected at room temperature using a Dynex MLX microtiter plate luminometer.
as §1

[3] = target: T3, GAL4 DBD (1-147)-CfEcR(DEF)/VP16AD-βRXREF-LmUSPEF (Choristoneura fumiferana, UniProt O77240); test: cell-based; details: for fold induction at 33.3 µM: 48 h, read-out: Fold Induction Average, 27-63 assay; for Rel Max FI, 27-63 assay: maximum fold induction relative to that of GS-E ligand
T3 construct: The wild-type D, E, and F domains from spruce budworm Choristoneura fumiferana EcR (“CfEcR-DEF”)
Experimental: Stably transfected cells were selected by Zeocin resistance. Individually isolated CHO cell clones were transiently transfected with a GAL4 RE-luciferase reporter (pFR Luc). 27-63 clone was selected using Hygromycin.
as §2, §3, §1

Row | SMILES | Fold Induction Average, Z3 assay [1] | Fold Induction Average, 13B3 assay [2] | EC50 [3] | fold induction at 33.3 µM [3] | Rel Max FI, 27-63 assay [3] | fold induction at 33 µM [1]
1 | CC1(C)ON=C(c2cccc(C(F)(F)F)c2)N1NC(=O)COCc1ccccc1 [RG-120006] | 0.5 | 1.1 | – | – | – | –
2 | CC1(C)ON=C(c2ccc(Cl)cc2)N1NC(=O)C(F)(F)C(F)(F)Cl [RG-120073] | 0.5 | 0.9 | – | – | – | –
3 | CC1(C)ON=C(c2ccc(OC(F)(F)F)cc2)N1NC(=O)c1cc2ccccc2s1 [RG-120109] | 0.2 | – | – | – | – | –
4 | CC1(C)ON=C(c2ccc(OC(F)(F)F)cc2)N1NC(=O)Nc1ccccc1 [RG-120122] | 0.6 | 0.5 | – | – | – | –
5 | COc1ccccc1C1=NOC(C)(C)N1NC(=O)Nc1ccccc1 [RG-120025] | 0.8 | 0.9 | – | – | – | –
6 | CCC1(C)ON=C(c2cc(C)cc(C)c2)N1NC(=O)COCc1ccccc1 (stereo not drawn) [RG-120050] | 3.5 | 0.9 | – | – | – | –
7 | CC1(C)ON=C(c2ccc3c(c2)OCO3)N1NC(=O)c1ccco1 [RG-120149] | 0.7 | 1.1 | – | – | – | –
8 | CCc1ccc(C(=O)NN2C(c3ccccc3)=NOC23CCCC3)c(F)c1 [RG-121514] | – | – | 3.89 µM | 1.7 | 0.5 | –
9 | CC1(C)ON=C(c2ccc(OC(F)(F)F)cc2)N1NC(=O)COc1ccccc1 [RG-120029] | 0.7 | 1.5 | – | – | – | –
10 | Cc1cc(C)cc(C2=NOC(C)(C)N2NC(=O)NCc2ccccc2)c1 [RG-120088] | 8.2 | 0.9 | – | – | – | –
11 | CC1(C)ON=C(c2cccc(C(F)(F)F)c2)N1NC(=O)COc1ccccc1 [RG-120163] | 0.5 | 1.1 | – | – | – | –
12 | COc1ccc(C2=NOC(C)(C)N2NC(=O)Cc2ccccc2)c(OC)c1 [RG-120078] | 0.4 | – | – | – | – | –
13 | CCc1ccc(C(=O)NN2C(c3cc(C)cc(C)c3)=NOC23CCOCC3)cc1 [RG-120005] | – | – | > 33 µM | 0.8 | 0 | –
14 | CCOC(=O)CCC(=O)NN1C(c2ccccc2OC)=NOC1(C)C [RG-120144] | 0.7 | 0.1 | – | – | – | –
15 | CCc1ccc(C(=O)NN2C(c3cccc(C(F)(F)F)c3)=NOC2(C)C)cc1 [RG-120148] | – | – | > 33 µM | 0.7 | 0 | 1.1
16 | CCOC(=O)CCC(=O)NN1C(c2ccc3c(c2)OCO3)=NOC1(C)C [RG-120083] | 0.8 | 1.3 | – | – | – | –
17 | COc1ccc(C2=NOC(C)(C)N2NC(=O)COc2ccccc2)c(OC)c1 [RG-120079] | 0.6 | 0.7 | – | – | – | –
18 | CC1(C)ON=C(c2ccc3c(c2)OCO3)N1NC(=O)Cc1ccccc1 [RG-120081] | 0.6 | 0.5 | – | – | – | –
19 | Cc1cc(C)cc(C2=NOC3(CCOCC3)N2NC(=O)COCc2ccccc2)c1 [RG-120009] | 0.8 | 1.3 | – | – | – | –

Row | SMILES | Fold Induction Average, Z3 assay [1] | Fold Induction Average, 13B3 assay [2] | EC50 [3] | fold induction at 33.3 µM [3] | Rel Max FI, 27-63 assay [3] | fold induction at 33 µM [1]
20 | CC1(C)ON=C(c2ccc(OC(F)(F)F)cc2)N1NC(=O)Cc1ccccc1 [RG-120160] | 0.6 | 0.3 | – | – | – | –
21 | CCc1c(C(=O)NN2C(c3ccccc3)=NOC2(C)C)ccc2c1OCCO2 [RG-121517, 5-ethyl-2,3-dihydro-benzo[1,4]dioxine-6-carboxylic acid (5,5-dimethyl-3-phenyl-[1,2,4]oxadiazol-4-yl)-amide] | – | – | ~20 µM | 3510 | 1.55 | –
22 | COc1ccccc1C1=NOC(C)(C)N1NC(=O)COc1ccccc1 [RG-120057] | 0.8 | 0.6 | – | – | – | –
23 | COc1ccc(C2=NOC(C)(C)N2NC(=O)c2ccco2)c(OC)c1 [RG-120102] | 0.8 | 0.5 | – | – | – | –
24 | COc1ccccc1C1=NOC(C)(C)N1NC(=O)C(F)(F)C(F)(F)Cl [RG-120062] | 0.6 | 0.2 | – | – | – | –
25 | CCc1ccc(C(=O)NN2C(c3ccccc3)=NOC2(C)C)c(F)c1 [RG-121516] | – | – | > 33 µM | 7.9 | 0 | –
26 | CCc1ccc(C(=O)NN2C(c3cc(C)cc(C)c3)=NOC2(C)CC)c(F)c1 (stereo not drawn) [RG-121513] | – | – | ~10 µM | 1020 | 0.44 | –
27 | CCc1ccc(C(=O)NN2C(c3cc(C)cc(C)c3)=NOC23CCCC3)c(F)c1 [RG-121515] | – | – | ~5 µM | 36.6 | 0.17 | –
28 | CCOC(=O)CCC(=O)NN1C(c2ccc(OC)cc2OC)=NOC1(C)C [RG-120038] | 0.2 | – | – | – | – | –
29 | CCc1c(OC)cccc1C(=O)NN1C(c2ccc3c(c2)OCO3)=NOC1(C)C [RG-120023] | – | – | > 33 µM | 1.4 | 0 | 0.2
30 | CC1(C)ON=C(c2cccc(C(F)(F)F)c2)N1NC(=O)C(F)(F)C(F)(F)Cl [RG-120059] | 0.6 | – | – | – | – | –
31 | COc1ccccc1C1=NOC(C)(C)N1NC(=O)Cc1ccccc1 [RG-120157] | 0.9 | – | – | – | – | –
32 | CCc1c(C(=O)NN2C(c3cc(C)cc(C)c3)=NOC2(C)CC)ccc2c1OCCO2 (stereo not drawn) [RG-121518] | – | – | 3.57 µM | 2340 | 1.08 | –
33 | Cc1cc(C)cc(C2=NOC3(CCOCC3)N2NC(=O)c2ccccc2)c1 [RG-120019] | – | – | > 33 µM | 1.5 | 0 | –
34 | CCc1c(OC)cccc1C(=O)NN1C(c2cccc(C(F)(F)F)c2)=NOC1(C)C [RG-120093] | – | – | > 33 µM | 5 | 0 | 0.2
35 | CCOC(=O)CCC(=O)NN1C(c2ccccc2)=NOC12CCCC2 [RG-120014] | 1.1 | – | – | – | – | –
36 | CCc1c(OC)cccc1C(=O)NN1C(c2ccc(OC(F)(F)F)cc2)=NOC1(C)C [RG-120022] | – | – | > 33 µM | 0.3 | 0 | 0.1
37 | Cc1cc(C)cc(C2=NOC3(CCOCC3)N2NC(=O)COc2ccccc2)c1 [RG-120048] | 1.0 | – | – | – | – | –
38 | CC1(C)ON=C(c2cccc(C(F)(F)F)c2)N1NC(=O)c1cc2ccccc2s1 [RG-120108] | 0.3 | – | – | – | – | –
